From PMC10784557, “In silico and in vitro prediction of new synthesized N-heterocyclic compounds as anti-SARS-CoV-2” (Scientific Reports, 2024)
≈ marks a conversion by molar mass, not a printed value.

Columns and labels:
[1] = system: SARS-CoV-2 (hCoV-19/Egypt/NRC-03/2020); assay: Inhibitory concentration 50 (IC50) determination, virus-induced cytopathic effect, crystal violet; assay type: cell-based; conditions: Severe acute respiratory syndrome coronavirus 2, Vero C1008; Vero-E6 cells infected with hCoV-19/Egypt/NRC-03/2020, 72 h
Protocol: In 96-well tissue culture plates, 2.4 × 10^4 Vero-E6 cells were distributed in each well and incubated overnight at a humidified 37 °C incubator under 5%CO2 condition. The cell monolayers were then washed once with 1 × PBS and subjected to virus adsorption (hCoV-19/Egypt/NRC-03/2020 (Accession Number on GSAID: EPI_ISL_430820)) for 1 h at room temperature (RT). More details were provided in Supplementary Information.
3.4.Inhibitory concentration 50 (IC50) determination
In 96-well tissue culture plates, 2.4×10^4 Vero-E6 cells were distributed in each well and incubated overnight at a humidified 37°C incubator under 5%CO2 condition. The cell monolayers were then washed once with 1x PBS and subjected to virus adsorption (hCoV-19/Egypt/NRC-03/2020 (Accession Number on GSAID: EPI_ISL_430820)) for 1 h at room temperature (RT). The cell monolayers were further overlaid with 100μl of DMEM containing varying concentrations of the test compounds. Following incubation at 37°C in 5% CO2 incubator for 72 h, the cells were fixed with 100 μl of 4% paraformaldehyde for 20 min and stained with 0.1% crystal violet in distilled water for 15 min at RT. The crystal violet dye was then dissolved using 100 μl absolute methanol per well and the optical density of the color is measured at 570 nm using Anthos Zenyth 200rt plate reader (Anthos Labtec Instruments, Heerhugowaard, Netherlands). The IC50 of the compound is that required to reduce the virus -induced cytopathic effect (CPE) by 50%, relative to the virus control.

in vitro = conditions: African green monkey

Structure (SMILES) | IC50 [1] | CC50 at 24 h (in vitro)
N=c1oc2ccccc2cc1-c1nnc(-c2cccnc2)o1 [Compound 5, 3-(5-(pyridin-3-yl)-1,3,4-oxadiazol-2-yl)-2H-chromen-2-imine] | 55 µg/mL (≈ 189 µM) | 312 µg/mL (≈ 1070 µM)
Clc1nc2ccccc2cc1C=Nc1nnc(-c2cccnc2)s1 [Compound 12, 1-(2-chloroquinolin-3-yl)-N-(5-(pyridin-3-yl)-1,3,4-thiadiazol-2-yl)methanimine] | 120 µg/mL (≈ 341 µM) | 512 µg/mL (≈ 1450 µM)
C(=Nc1nnc(-c2cccnc2)s1)c1c[nH]c2ccccc12 [Compound 11, 1-(1H-indol-3-yl)-N-(5-(pyridin-3-yl)-1,3,4-thiadiazol-2-yl)methanimine] | 216 µg/mL (≈ 707 µM) | 552 µg/mL (≈ 1810 µM)
